Columns and labels:
NK92 cells = test: RT-PCR of cytokine mRNA levels in NK92 cells; assay type: cell-based, human; details: 2 ng, FIG. 2A
Procedure: (§1) Human cell lines (A549, NK92, muDC, Jurkat) were cultured in a 37° C., 5% CO2 humidified incubator.
Particularly, NK92 (human NK lymphoma), the IL-2 dependent NK cell line, was purchased from ATCC (American Type Culture Collection). The NK92 cell line was maintained in α-MEM (Life Technologies, Karlsruhe, Germany) supplemented with 20% FCS (HyClone, Logan, Utah), 2 mM […], 100 μg/ml penicillin, 100 μg/ml streptomycin (Life Technologies) and 100 U/ml IL-2 (Chiron, Emeryville, Calif.).
(§2) RT-PCR was performed to investigate the changes of mRNA levels in relation to the inducement of IFN-γ, IL-2, and IL-12 in A549, NK92, muDC, and Jurkat cells cultured in <Example 2>. These cells were cultured in the presence of 2 ng of genekwadapnin or yuanhuacine for 12 hours.
Phase II RT-PCR was performed with oligo-dT primer, reverse transcriptase, specific primer set, and Taq polymerase (Takara, Shiga, Japan). Total RNA was isolated according to the standard protocol. cDNA was synthesized by using Accusript High Fidelity 1st Strand cDNA Synthesis Kit (Stratagene) according to the manufacturer's instruction. 1 μl of the synthesized cDNA was used for PCR with 20 μl of reaction mixture containing 0.5 U ExTaq DNA polymerase, 1× buffer, 1 mM dNTP mix (Takara) and specific primer set. PCR amplification was performed using GeneAmp PCR system 2700 (Applied Biosystems, Foster city, CA, USA) as follows: predenaturation at 94° C. for 5 minutes, denaturation at 94° C. for 45 seconds, annealing at 56° C. for 45 seconds, polymerization at 72° C. for 1 minute, 25˜40 cycles from denaturation to polymerization, and final extension at 72° C. for 7 minutes. PCR primers shown in [Table 1] were designed by using Primer 3 program, which were purchased from Bioneer (Daejeon, Korea). […]
(§3) The PCR product was electrophoresed on 1.5% agarose gel, which was stained with ethidium bromide (EtBr) and then visualized by using Gel Doc 2000 UV trans-illuminator (Bio-Rad Laboratories, Hercules, Calif., […]). Analysis was performed with Quantity One software (Bio-Rad Laboratories).

A549 cells = test: RT-PCR of cytokine mRNA levels in A549 cells; assay type: cell-based, human; details: 2 ng, FIG. 2A
Procedure: as §1, §2
Phase II RT-PCR was performed with oligo-dT primer, reverse transcriptase, specific primer set, and Taq polymerase (Takara, Shiga, Japan). Total RNA was isolated according to the standard protocol. cDNA was synthesized by using Accusript High Fidelity 1st Strand cDNA Synthesis Kit (Stratagene) according to the manufacturer's instruction. 1 μl of the synthesized cDNA was used for PCR with 20 μl of reaction mixture containing 0.5 U ExTaq DNA polymerase, 1× buffer, 1 mM dNTP mix (Takara) and specific primer set. PCR amplification was performed using GeneAmp PCR system 2700 (Applied Biosystems, Foster city, CA, USA) as follows: predenaturation at 94° C. for 5 minutes, denaturation at 94° C. for 45 seconds, annealing at 56° C. for 45 seconds, polymerization at 72° C. for 1 minute, 25˜40 cycles from denaturation to polymerization, and final extension at 72° C. for 7 minutes. PCR primers shown in [Table 1] were designed by using Primer 3 program, which were purchased from Bioneer (Daejeon, Korea). At this time, GAPDH was used as the internal control.
as §3

NC mouse = test: Atopy treatment effect in NC mouse model; assay type: in vivo; details: local spreading on skin, FIG. 3
Text: NC mouse is the mouse showing typical atopy symptom when it is raised in the conventional space. Genekwadapnin or yuanhuacine was spread locally on NC mouse starting to show atopy symptom, followed by observation of changes of atopy symptom.

Balb/C mouse = test: Atopy treatment effect in DNCB atopy induced mouse model; assay type: in vivo; details: score 10˜13 group with severe atopic symptoms, FIG. 4
Procedure: DNCB, one of allergens, was spread on the shaved skin of a normal Balb/C mouse to induce atopy intentionally. Atopy symptoms varied from the dose of DNCB and the treatment period, which were classified into different score groups (score 4˜8 group and score 10˜13 group). In the mouse group (score 4˜8 group) which was treated with a lower dose of DNCB, atopic skin was recovered to normal skin within 24 hours from the treatment of genekwadapnin or yuanhuacine. […] At that time, the test was performed in duplicate with 10 mice each.

atopy patients = test: Atopy treatment effect in atopy patient; assay type: in vivo, human; details: 5 ug/ml spread on the skin, FIG. 5
Procedure: After spreading genekwadapnin or yuanhuacine on the skin of atopy patients, atopy treatment effect of the compound was confirmed.
Particularly, 5 ug/ml of genekwadapnin or yuanhuacine was spread on the skin of atopy patients, followed by observation for 5˜20 days. The treatment effect was confirmed by Medream Skin Clinic (Goejeong-dong, Seogu, Daejeon, Korea).

PKC isotype = test: Intracellular mechanism: phosphorylation level of PKC isotype in NK92 cells (western blot); assay type: cell-based, human; details: 500 ng/ml, 12 hours, FIG. 6
Procedure: To investigate the intracellular mechanism of genekwadapnin or yuanhuacine, the NK92 cells cultured in <Example 2> were treated with genekwadapnin or yuanhuacine at the concentration of 500 ng/ml. 12 hours later, phosphorylation level of PKC isotype was investigated by using antibodies. The quantity of protein used herein was confirmed by using GAPDH.
Particularly, the cells treated with genekwadapnin or yuanhuacine were dissolved in ice by using cold SDS-lysis buffer [(50 mM HEPES, 150 mM NaCl, 0.2 mM EDTA, 0.5% NP-40, 0.1% SDS, 1 mM Na3VO4, 10 mM NaF, and complete Protein Inhibitor Cocktail (Roche)] for 30 minutes. The dissolved cell solution was spinned at the speed of 13,000 rpm for 30 minutes in a high-speed rotating machine to precipitate insoluble part and then water soluble part was separated. The separated cell aqueous solution was quantified, followed by electrophoresis using 10˜20% SDS-PAGE. Cellular protein separated on the gel was transcribed onto PVDF membrane (Millipore, Billerica, Mass., USA) at 100 V for 2 hours. To confirm PCK isotype phosphorylated in the cells, poly rabbit anti-PKD1, -phosphoPKD1 (Ser916), -phosphoPKDl (Ser744/748), -phosphoPKCα/βII, -phosphoPKCδ, -phosphoPKCθ, and -phosphoPKCζ/λ IgG (Cell signaling Technology, USA) (1:1000) were used as primary antibodies. As a secondary antibody, horseradish peroxidase peroxidase-conjugated goat anti-rabbit IgG (Santa Cruz Biotechnology, USA) (1:3000) was treated at room temperature for 60 minutes. To confirm the equal amount of cellular protein, poly rabbit anti-GAPDH IgG (Santa Cruz Biotechnology, Pasadena, Calif., USA) was used.

[1] = NK92 cells (printed NR92), 12 hours after treatment

## C=C(C)[C@@]12OC3(/C=C/C=C/CCCCC)O[C@@H]1[C@@H]1[C@@H]4O[C@]4(CO)[C@@H](O)[C@]4(O)C(=O)C(C)=C[C@H]4[C@@]1(O3)[C@H](C)[C@H]2OC(=O)c1ccccc1 [yuanhuacine]
NK92 cells; [1]
  transcript of type II cytokine, IL-4: not induced
  transcripts of Type I cytokines, IFN-γ, IL-2, and IL-12: significantly increased
NK92 cells; NK92 cells, 12 hours
  transcripts of IL-15 and IL-18: not controlled
A549 cells; 12 hours after treatment
  transcript of type II cytokine, IL-4: not induced
  transcripts of Type I cytokines, IFN-γ, IL-2, and IL-12: significantly increased
A549 cells; 12 hours
  transcripts of IL-15 and IL-18: not controlled
NC mouse
  atopy symptom on the back where the compound was spread: significantly reduced
  skin biopsy: distribution of inflammatory cells, phenotype of the treated area: almost normal phenotype
Balb/C mouse
  speed of recovery versus the control group: at least two times faster
Atopy patients; minor symptoms
  time until atopic skin was recovered to normal: 5 days
Atopy patients; severe symptoms
  time until atopic skin was recovered to normal: 20 days
PKC isotype
  PKD1 level: not changed
  phosphorylation of other types of PKC isotype: not phosphorylated
  phosphorylation of serin residues (744th/748th, and 916th sites of PKD1 protein): confirmed
